Experimental data as given in BindingDB's records for patent US20240148821 (Chugai Seiyaku Kabushiki Kaisha, 2024).
Numbered stars: 1 amine (or outer) side, 2 acyl side, 3 side chain; on linkers, the order of the positions; unused ones are H or OH. Bridge positions count the residues as written; N and C are the ends. Square brackets hold non-standard residues; d marks the D form. Peptide text beside a SMILES is read from it. * marks the point of attachment. ξ: configuration not given here. hPhe(3,5-F2-4-CF3) = N[C@@H](CCc1cc(F)c(C(F)(F)F)c(F)c1)C(=O)O; hPhe(3-Cl-4-CF3) = N[C@@H](CCc1ccc(C(F)(F)F)c(Cl)c1)C(=O)O; hPhe(3-F,4-CF3) = N[C@@H](CCc1ccc(C(F)(F)F)c(F)c1)C(=O)O; NMeGly(COCH2cHex) = CN[C@H](C(=O)O)C(=O)CC1CCCCC1; X54 = COc1cc(CC[C@H](N[*:1])C(=O)[*:2])cc(Cl)c1Cl; X63 = O=C([C@H](CCc1ccc(C(F)F)c(F)c1)N[*:1])[*:2]; X96 = O=C([C@H](CCc1ccc(C(F)(F)F)nc1)N[*:1])[*:2]; Piperazinyl(4-(3-oxetanyl)) = C1OCC1N1CCN(*)CC1; X55 = Cn1ccc2ccc(CC[C@H](N[*:1])C(=O)[*:2])cc21; X44 = O=C([C@H](CCc1ccc2cccnc2c1)N[*:1])[*:2]; X85 = O=C([C@H](CCc1ccc2ncccc2c1)N[*:1])[*:2]; NMeGly(cPent) = CN[C@H](C(=O)O)C1CCCC1; NMeCha = CN[C@@H](CC1CCCCC1)C(=O)O; cisHyp = O=C(O)[C@@H]1C[C@H](O)CN1; ξPro(4,4-F2) = O=C(O)C1CC(F)(F)CN1; Hyp = O=C(O)[C@@H]1C[C@@H](O)CN1; NMeChg = CN[C@H](C(=O)O)C1CCCCC1; NMeI = CC[C@H](C)[C@H](NC)C(=O)O; NMeD = CN[C@@H](CC(=O)O)C(=O)O; NMeL = CN[C@@H](CC(C)C)C(=O)O; d(β3hA) = C[C@@H](N)CC(=O)O; NMeA = CN[C@@H](C)C(=O)O; Piperidide = C1CCN(*)CC1; Pyrrolidide = C1CCN(*)C1; Ac5c = NC1(C(=O)O)CCCC1; Aze = O=C(O)[C@@H]1CCN1; Ac4c = NC1(C(=O)O)CCC1; ξP = O=C(O)C1CCCN1; Sar = CNCC(=O)O

The molecules below were run against GTPase KRas (G12D) and Son of Sevenless Homolog 1 (SOS) (Homo sapiens, UniProt P01116, G12D) (assay: AlphaScreen Assay).
Chain of GTPase KRas (G12D) and Son of Sevenless Homolog 1 (SOS) (P01116 whole entry G12D): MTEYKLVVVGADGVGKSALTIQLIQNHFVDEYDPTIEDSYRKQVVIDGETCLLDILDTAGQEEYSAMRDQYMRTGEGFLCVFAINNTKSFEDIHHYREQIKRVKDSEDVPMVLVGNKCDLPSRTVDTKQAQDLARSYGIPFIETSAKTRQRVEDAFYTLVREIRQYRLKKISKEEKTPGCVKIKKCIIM
Chain of GTPase KRas (G12D) and Son of Sevenless Homolog 1 (SOS) (Q07889 whole entry, further chain): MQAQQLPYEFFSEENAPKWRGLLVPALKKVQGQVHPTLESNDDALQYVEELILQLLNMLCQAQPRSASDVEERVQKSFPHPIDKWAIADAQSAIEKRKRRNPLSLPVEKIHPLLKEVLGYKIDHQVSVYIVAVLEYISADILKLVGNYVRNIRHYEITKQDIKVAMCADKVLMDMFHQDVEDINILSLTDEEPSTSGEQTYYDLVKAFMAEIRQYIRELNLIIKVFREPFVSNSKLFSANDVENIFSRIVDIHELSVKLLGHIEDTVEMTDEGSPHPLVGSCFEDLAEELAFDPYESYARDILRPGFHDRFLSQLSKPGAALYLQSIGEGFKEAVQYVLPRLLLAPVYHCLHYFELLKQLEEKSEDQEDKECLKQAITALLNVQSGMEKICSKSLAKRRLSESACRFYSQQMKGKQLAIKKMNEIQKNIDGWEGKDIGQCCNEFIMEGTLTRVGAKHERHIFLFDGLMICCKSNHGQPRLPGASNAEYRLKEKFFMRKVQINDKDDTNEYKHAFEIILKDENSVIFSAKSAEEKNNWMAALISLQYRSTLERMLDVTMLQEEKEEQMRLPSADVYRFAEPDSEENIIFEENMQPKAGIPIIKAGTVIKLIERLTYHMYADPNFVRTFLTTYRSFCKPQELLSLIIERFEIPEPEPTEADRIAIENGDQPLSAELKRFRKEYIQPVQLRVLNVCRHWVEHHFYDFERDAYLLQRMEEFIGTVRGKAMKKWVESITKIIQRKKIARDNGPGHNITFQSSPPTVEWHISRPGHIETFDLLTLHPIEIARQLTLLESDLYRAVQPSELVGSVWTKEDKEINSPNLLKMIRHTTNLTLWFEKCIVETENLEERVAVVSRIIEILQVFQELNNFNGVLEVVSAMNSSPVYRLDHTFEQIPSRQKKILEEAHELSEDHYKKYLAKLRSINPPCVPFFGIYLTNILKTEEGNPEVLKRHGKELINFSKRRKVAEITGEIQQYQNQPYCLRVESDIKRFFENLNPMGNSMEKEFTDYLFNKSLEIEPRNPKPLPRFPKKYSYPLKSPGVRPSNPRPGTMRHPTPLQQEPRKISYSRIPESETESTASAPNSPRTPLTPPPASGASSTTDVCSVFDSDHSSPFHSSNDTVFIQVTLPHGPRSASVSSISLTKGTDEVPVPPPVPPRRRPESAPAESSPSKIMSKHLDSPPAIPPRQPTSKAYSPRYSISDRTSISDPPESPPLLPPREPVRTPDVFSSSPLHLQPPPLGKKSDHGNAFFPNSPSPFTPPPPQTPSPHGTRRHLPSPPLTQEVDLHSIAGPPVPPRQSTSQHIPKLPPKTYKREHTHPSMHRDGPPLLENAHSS
Protocol: Protein-protein interaction inhibition (PPI) between Kras and SOS1 was measured by energy transfer from nickel-conjugated donor beads to streptavidin-conjugated acceptor beads using biotin-tagged human Kras expressed in E. coli and loaded with GDP after purification and His-tagged human SOS1 enzyme. This measurement utilizes the phenomenon in which donor beads are irradiated with light at 680 nm, such that energy is transferred to acceptor beads through singlet oxygen and light at 520-620 nm is detected from the acceptor beads.

Point of comparison: CC[C@H](C)[C@@H]1NC(=O)[C@H](C)N(C)C(=O)C[C@@H](C(=O)N2CCCCC2)N(C)C(=O)[C@H](C2CCCCC2)N(C)C(=O)C2(CCCC2)NC(=O)C2CCCN2C(=O)[C@H](CCc2cc(Cl)c(Cl)c(OC)c2)NC(=O)CN(C)C(=O)[C@H](C(=O)CC2CCCCC2)N(C)C(=O)CN(C)C(=O)CN(C)C1=O (stereo not given in full) [US20240148821, Compound 2081] ([NMeA]I[Sar][Sar][NMeGly(COCH2cHex)][Sar][X54][ξP][Ac5c][NMeChg][NMeD]-Piperidide; lactam N-11), IC50 2 nM. Against it:
- CC[C@H](C)[C@@H]1NC(=O)[C@H](CC(C)C)N(C)C(=O)C[C@@H](C(=O)N2CCCCC2)N(C)C(=O)[C@H](CC(C)C)N(C)C(=O)C2(CCCC2)NC(=O)[C@@H]2C[C@H](O)CN2C(=O)[C@H](CCc2ccc(C(F)(F)F)c(F)c2)NC(=O)CN(C)C(=O)[C@H](CC2CCCCC2)N(C)C(=O)CN(C)C(=O)CN(C)C1=O [US20240148821, Compound 544] ([NMeL]I[Sar][Sar][NMeCha][Sar][hPhe(3-F,4-CF3)][cisHyp][Ac5c][NMeL][NMeD]-Piperidide; lactam N-11) — within 1.5-fold, 2.2 nM
- CC[C@H](C)[C@@H]1NC(=O)[C@H](CC(C)C)N(C)C(=O)C[C@@H](C(=O)N2CCN(C3COC3)CC2)NC(=O)[C@H]([C@@H](C)CC)N(C)C(=O)C2(CCCC2)NC(=O)C2CCCN2C(=O)[C@H](CCc2ccc(C(F)(F)F)c(Cl)c2)NC(=O)CN(C)C(=O)[C@H](C(=O)CC2CCCCC2)N(C)C(=O)CN(C)C(=O)CN(C)C1=O (stereo partly drawn) [US20240148821, Compound 1191] ([NMeL]I[Sar][Sar][NMeGly(COCH2cHex)][Sar][hPhe(3-Cl-4-CF3)][ξP][Ac5c][NMeI]D-{Piperazinyl(4-(3-oxetanyl))}; lactam N-11) — 3.4-fold higher, 6.7 nM
- CC[C@H](C)[C@@H]1NC(=O)[C@H](CC(C)C)N(C)C(=O)C[C@@H](C(=O)N2CCCC2)N(C)C(=O)[C@H](C2CCCCC2)N(C)C(=O)C2(CCC2)NC(=O)C2CC(F)(F)CN2C(=O)[C@H](CCc2cc(F)c(C(F)(F)F)c(F)c2)NC(=O)CN(C)C(=O)[C@H](C(=O)CC2CCCCC2)N(C)C(=O)CN(C)C(=O)CN(C)C1=O (stereo not given in full) [US20240148821, Compound 1192] ([NMeL]I[Sar][Sar][NMeGly(COCH2cHex)][Sar][hPhe(3,5-F2-4-CF3)][ξPro(4,4-F2)][Ac4c][NMeChg][NMeD]-Pyrrolidide; lactam N-11) — 5.1-fold lower, 0.39 nM
- CC[C@H](C)[C@@H]1NC(=O)[C@H](CC(C)C)N(C)C(=O)C[C@@H](C)NC(=O)[C@H](CC(C)C)N(C)C(=O)C2(CCCC2)NC(=O)[C@@H]2C[C@@H](O)CN2C(=O)[C@H](CCc2ccc(C(F)(F)F)c(F)c2)NC(=O)CN(C)C(=O)[C@H](CC2CCCCC2)N(C)C(=O)CN(C)C(=O)CN(C)C1=O [US20240148821, Compound 1483] (cyclo([Ac5c][NMeL][d(β3hA)][NMeL]I[Sar][Sar][NMeCha][Sar][hPhe(3-F,4-CF3)][Hyp])) — 17-fold higher, 34 nM
- CC[C@H](C)[C@@H]1NC(=O)[C@H](CC(C)C)N(C)C(=O)C[C@@H](C(=O)N2CCCCC2)N(C)C(=O)[C@H](C2CCCC2)N(C)C(=O)C2(CCCC2)NC(=O)[C@@H]2CCCN2C(=O)[C@H](CCc2ccc3ccn(C)c3c2)NC(=O)CN(C)C(=O)[C@H](CC2CCCCC2)N(C)C(=O)[C@@H]2CCN2C(=O)[C@H](C)N(C)C1=O [US20240148821, Compound 2065] ([NMeL]I[NMeA][Aze][NMeCha][Sar][X55]P[Ac5c][NMeGly(cPent)][NMeD]-Piperidide; lactam N-11) — 8-fold higher, 16 nM
- CC[C@H](C)[C@@H]1NC(=O)[C@H](CC(C)C)N(C)C(=O)C[C@@H](C(=O)N2CCCCC2)N(C)C(=O)[C@H](C2CCCC2)N(C)C(=O)C2(CCCC2)NC(=O)[C@@H]2CCCN2C(=O)[C@H](CCc2ccc3ncccc3c2)NC(=O)CN(C)C(=O)[C@H](CC2CCCCC2)N(C)C(=O)[C@@H]2CCN2C(=O)[C@H](C)N(C)C1=O [US20240148821, Compound 2070] ([NMeL]I[NMeA][Aze][NMeCha][Sar][X85]P[Ac5c][NMeGly(cPent)][NMeD]-Piperidide; lactam N-11) — 9-fold higher, 18 nM
- CC[C@H](C)[C@@H]1NC(=O)[C@H](CC(C)C)N(C)C(=O)C[C@@H](C(=O)N2CCCCC2)N(C)C(=O)[C@H](C2CCCC2)N(C)C(=O)C2(CCCC2)NC(=O)[C@@H]2CCCN2C(=O)[C@H](CCc2ccc3cccnc3c2)NC(=O)CN(C)C(=O)[C@H](CC2CCCCC2)N(C)C(=O)[C@@H]2CCN2C(=O)[C@H](C)N(C)C1=O [US20240148821, Compound 2077] ([NMeL]I[NMeA][Aze][NMeCha][Sar][X44]P[Ac5c][NMeGly(cPent)][NMeD]-Piperidide; lactam N-11) — 24-fold higher, 47 nM
- CC[C@H](C)[C@@H]1NC(=O)[C@H](CC(C)C)N(C)C(=O)C[C@@H](C(=O)N2CCCCC2)N(C)C(=O)[C@H](C2CCCC2)N(C)C(=O)C2(CCCC2)NC(=O)[C@@H]2CCCN2C(=O)[C@H](CCc2ccc(C(F)(F)F)nc2)NC(=O)CN(C)C(=O)[C@H](CC2CCCCC2)N(C)C(=O)[C@@H]2CCN2C(=O)[C@H](C)N(C)C1=O [US20240148821, Compound 2078] ([NMeL]I[NMeA][Aze][NMeCha][Sar][X96]P[Ac5c][NMeGly(cPent)][NMeD]-Piperidide; lactam N-11) — 5.5-fold higher, 11 nM
- CC[C@H](C)[C@@H]1NC(=O)[C@H](CC(C)C)N(C)C(=O)C[C@@H](C(=O)N2CCCCC2)N(C)C(=O)[C@H](C2CCCC2)N(C)C(=O)C2(CCCC2)NC(=O)[C@@H]2CCCN2C(=O)[C@H](CCc2ccc(C(F)F)c(F)c2)NC(=O)CN(C)C(=O)[C@H](CC2CCCCC2)N(C)C(=O)[C@@H]2CCN2C(=O)[C@H](C)N(C)C1=O [US20240148821, Compound 2085] ([NMeL]I[NMeA][Aze][NMeCha][Sar][X63]P[Ac5c][NMeGly(cPent)][NMeD]-Piperidide; lactam N-11) — within 1.5-fold, 2.9 nM
